Experimental data as given in patent publication US20210161837A1, “METHODS FOR TREATING CANCER WITH RORGAMMA INHIBITORS” (The Regents of the University of California, priority 2016, published 2021).

Columns and labels:
MCF-7-C6 = assay: Growth and survival of radiation-resistant breast cancer cells; format: cell-based, human; conditions: radiation-resistant MCF-7-C6
C4-2B xenografts = assay: C4-2B xenograft tumor growth; format: in vivo, mouse; conditions: 20 mg/kg, i.p., 5 times a week, 21-24 days
[1] = test system: lung cancer cells (A427, Calu1, A549, H23, H358, H1666, HCC827, PC-9, H69, H209); assay: Cell viability (CellTiter-GLO), 4 days, lung cancer cells; format: cell-based; conditions: Homo sapiens, 96 h, NSCLC and SCLC lung cancer cells
Description: All those cells are derived from human tumors of non-small cell lung carcinoma (NSCLC).

AR and AR-V7 expression = assay: Immunoblotting and qRT-PCR of AR and AR-V7 expression in C4-2B and VCaP cells; format: cell-based, human
Procedure: Data shown are mean±s.d. Significance was calculated using Student's t-test. *p<0.05, **p<0.01.
(§1) Total RNA was isolated from cells in 6-well or 10-cm plates or from xenograft tumors, and the cDNA was prepared, amplified and measured in the presence of SYBR as described in Yang, P., et al., Molecular and cellular biology 32, 3121-3131 (2012). Briefly, the fluorescent values were collected and a melting curve analysis was performed. Fold difference was calculated as described previously Yang, P., et al. (see, id). The experiments were performed at least three times with data presented as mean values±s.d. Cell lysates were analyzed by immunoblotting with antibodies specifically recognizing RORγ, AR, AR-V7 and the indicated proteins.

[2] = test system: AR-positive PCa cell models including 22Rv1, VCaP, LNCaP, LAPC4 and PC346C; assay: Growth inhibition in other AR-positive PCa cell models; format: cell-based, human
Procedure: (§2) (a&b) C4-2B and 22Rv1 cell proliferation after the RORγ antagonist treatment. Cells were seeded in 6-well plates and counted after cells were treated with indicated concentrations of RORγ antagonists for 0, 2, 4 and 6 days by Coulter counter. […] (e) representative images of TUNEL positive cells treated with vehicle or the antagonist (5 μM) in 22Rv1 cells are shown. […] Three days later, cells were harvested for immunoblotting with indicated antibodies.
(§3) LNCaP, C4-2B, 22Rv, PC-3, and PC346C prostate cancer cells were cultured in RPMI1640, VCaP, HEK293T and human fibroblast IMR90 cells were in DMEM, LAPC-4 was in Iscove's MEM (all from Corning), and RWPE-1 and PZ-HPV-7 were in Keratinocyte Serum Free Medium (K-SFM) (Invitrogen) with the supplements. All the culture media except for RWPE-1 and PZ-HPV-7 were supplemented with 10% FBS (Hyclone) except indicated otherwise. For experiments, C4-2B cells were cultured in RPMI supplemented with 9% cds-FBS plus 1% regular FBS (to mimic the CRPC condition) unless indicated otherwise and 22Rv1 cells were cultured in RPMI supplemented with 10% cds-FBS. Cells were grown at 37° C. in 5% CO2 incubators. LNCaP, VCaP, 22Rv1, PC-3, 293T, IMR90, PZ-HPV-7 and RWPE-1 were from ATCC. C4-2B was from UroCor Inc. (Oklahoma City, Okla.). […]

AR expression = assay: Immunoblotting of AR expression in 22Rv1, LAPC4 and PC346C cells; format: cell-based, human; conditions: 22Rv1, LAPC4, PC346C cells, 72 hours
Procedure: as §1

HCC70 cells = assay: Cell viability (CellTiter-GLO), 4 days, TNBC cells; format: cell-based, human
Procedure: (§4) The “No.” label for each compound corresponds to the “Structure No.” in Table 2 (e.g., “No. 36”=“Structure No. 36” in Table 2). The cell viability curves were measured by CellTiter-GLO.
(§5) For cell viability, cells were seeded in 96-well plates at 1500-2500 cells per well (optimum density for growth) in a total volume of 100 μl media. Serially diluted compounds in 100 μl of media were added to the cells 12 hours later. After 4 days of incubation, Cell-Titer GLO reagents (Promega) were added and luminescence was measured on GLOMAX microplate luminometer (Promega), according to the manufacturer's instructions. All experimental points were set up as sextuplicate as biological replication and the entire experiments were repeated three times. The data are presented as percentage of viable cells with vehicle treated cells set as 100. The estimated in vitro IC50 values were calculated using GraphPad Prism 6 software.

MDA-MB468 cells = assay: Cell viability (CellTiter-GLO), 4 days, TNBC cells; format: cell-based, human
Procedure: as §4, §5

T47D = assay: Cell viability (CellTiter-GLO), 4 days, ER-positive cells; format: cell-based; conditions: Homo sapiens, 96 h
Procedure: as §5, with “growth, depending on the specific cell line)” for “growth)”

MCF-7 = assay: as above; format: cell-based; conditions: Homo sapiens, MCF7, 96 h; ER-positive MCF-7, 4 days
Procedure: as §5, with “growth, depending on the specific cell line)” for “growth)”

CRPC cells = assay: Growth inhibition of CRPC cells compared with enzalutamide; format: cell-based, human
Procedure: Data shown are mean percentage of apoptotic cells±s.d. […] Data shown are mean±s.d. Significance was calculated using Student's t-test. *p<0.05, **p<0.01.
as §2
as §3, with “ATCC.” for “ATCC. C4-2B was from UroCor Inc. (Oklahoma City, Okla.).”

[3] = test system: OVCAR420, T24, ECC1, T98G, SUDHL4, SUDHL6, HCT116 and docetaxel-resistant C4-2B cells; assay: Cell viability (CellTiter-GLO), 4 days, further cancer types; format: cell-based; conditions: Homo sapiens, 96 h, ovarian, bladder, endometrial, glioblastoma, DLBCL, colon
HCC1954 = assay: Cell viability (CellTiter-GLO), 4 days, HER2-positive cells; format: cell-based; conditions: Homo sapiens, 96 h; HER2-positive HCC1954, 4 days
Procedure: as §5, with “growth, depending on the specific cell line)” for “growth)”

22Rv1 xenografts = assay: 22Rv1 xenograft tumor growth; format: in vivo, mouse; conditions: 5 mg/kg, i.p., 5 times a week, 21-24 days
[4] = test system: TNBC cells including MDA-MB468, MDA-MB231, BT20, SUM149 and HCC1937; assay: Cell viability (CellTiter-GLO), 4 days, TNBC cells; format: cell-based; conditions: Homo sapiens, 96 h
Procedure: as §5, with “growth, depending on the specific cell line)” for “growth)”

For O=C(Cc1ccccc1[N+](=O)[O-])Nc1ccc(-c2ccc(C(O)(C(F)(F)F)C(F)(F)F)cc2F)cc1 [XY018, N-(2′-fluoro-4′-(1,1,1,3,3,3-hexafluoro-2-hydroxypropan-2-yl)-[1,1′-biphenyl]-4-yl)-2-(2-nitrophenyl)acetamide], the “inhibition of growth and survival” value (MCF-7-C6) was “potently inhibiting the growth and survival”, the tumor growth inhibition (C4-2B xenografts) was “strong tumor growth inhibition” and the IC50 [1] was 3.3 to 9 µM. For the same molecule, the “AR and AR-V7 expression” value (AR and AR-V7 expression) was “inhibited by XY018 in dose-dependent manner”, the growth inhibition [2] was “strong growth inhibition” and the AR expression (AR expression) was “potent does dependent XY018 inhibition of AR expression”. The “inhibition of growth and survival” value (HCC70 cells) was “strongly inhibited the growth and survival”, the “inhibition of growth and survival” value (MDA-MB468 cells) was “strongly inhibited the growth and survival” and the IC50 (T47D) was about 9 µM. The IC50 (MCF-7) was about 9 µM, the “growth inhibition, potency relative to enzalutamide” value (CRPC cells) was “strong growth inhibition with much higher potencies than that of enzalutamide” and the IC50 [3] was under 3.5 µM. The IC50 (HCC1954) was 1.47 µM, the tumor growth inhibition (22Rv1 xenografts) was “strong tumor growth inhibition” and the IC50 [4] was 0.5 to 3 µM.
